{"source": "ChEMBL document CHEMBL1141367", "about": "“Substituted 2-[(4-aminomethyl)phenoxy]-2-methylpropionic acid PPARalpha agonists. 1. Discovery of a novel series of potent HDLc raising agents” (J Med Chem, 2007)", "key": {"Mus musculus [1]": {"test_system": "Mus musculus", "experiment": "Decrease in plasma TG level in human Apo-A-I transgenic C57BL/6 mouse at 5 mg/kg, po", "assay_type": "functional", "parameters": "scale not given: the % may be the effect or the level left"}, "Mus musculus [2]": {"test_system": "Mus musculus", "experiment": "Increase in HDL cholesterol level in human Apo-A-I transgenic C57BL/6 mouse at 0.5 mg/kg, po", "assay_type": "functional"}, "[3]": {"molecular_target": "T1, Peroxisome proliferator-activated receptor gamma (Mus musculus, UniProt P37238)", "T1 sequence (P37238 whole entry)": "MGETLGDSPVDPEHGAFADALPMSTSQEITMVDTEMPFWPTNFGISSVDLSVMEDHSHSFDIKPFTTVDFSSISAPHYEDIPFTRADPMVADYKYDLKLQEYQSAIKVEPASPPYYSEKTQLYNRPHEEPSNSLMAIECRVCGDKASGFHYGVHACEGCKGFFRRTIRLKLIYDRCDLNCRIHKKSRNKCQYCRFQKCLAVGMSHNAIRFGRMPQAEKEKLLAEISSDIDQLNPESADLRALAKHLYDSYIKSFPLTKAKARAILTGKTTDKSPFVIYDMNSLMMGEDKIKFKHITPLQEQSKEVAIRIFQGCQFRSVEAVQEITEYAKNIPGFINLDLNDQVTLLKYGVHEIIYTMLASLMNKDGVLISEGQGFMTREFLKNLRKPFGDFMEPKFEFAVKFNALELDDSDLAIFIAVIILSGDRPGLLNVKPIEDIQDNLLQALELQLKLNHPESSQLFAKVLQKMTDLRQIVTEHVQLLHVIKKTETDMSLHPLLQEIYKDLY", "description": "Agonist potency at mouse PPARgamma"}, "[4]": {"molecular_target": "T2, Peroxisome proliferator-activated receptor delta (Homo sapiens, UniProt Q03181)", "T2 sequence (Q03181 whole entry)": "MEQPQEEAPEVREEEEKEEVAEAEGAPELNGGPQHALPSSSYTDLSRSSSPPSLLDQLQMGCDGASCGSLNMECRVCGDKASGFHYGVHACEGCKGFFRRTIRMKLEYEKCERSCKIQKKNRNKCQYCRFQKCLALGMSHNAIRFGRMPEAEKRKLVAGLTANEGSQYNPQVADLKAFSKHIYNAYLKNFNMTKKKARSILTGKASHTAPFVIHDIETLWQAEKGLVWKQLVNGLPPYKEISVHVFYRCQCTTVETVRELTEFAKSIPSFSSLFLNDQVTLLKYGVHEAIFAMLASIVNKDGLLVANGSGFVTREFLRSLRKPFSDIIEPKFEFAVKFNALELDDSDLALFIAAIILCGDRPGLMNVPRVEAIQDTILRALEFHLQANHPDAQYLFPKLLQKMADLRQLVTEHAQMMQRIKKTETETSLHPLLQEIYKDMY", "description": "Agonist potency at PPARdelta in CV1 cells by cell based transient transfection assay"}}}
{"smiles": "Cc1nc(-c2ccc(C(F)(F)F)cc2)sc1C(=O)NCc1ccc(OC(C)(C)C(=O)O)cc1", "note": "[GW590735]", "values": [{"measurement": "Activity", "setting": "Mus musculus [1]", "result": 65, "unit": "%"}, {"measurement": "Activity", "setting": "Mus musculus [2]", "result": 43, "unit": "%"}, {"measurement": "EC50", "setting": "[3]", "result": "> 10000", "unit": "nM"}, {"measurement": "EC50", "setting": "[4]", "result": 2830, "unit": "nM"}]}
